Values joined by “and” are separate entries in the source; they are usually repeats but may differ in a detail not shown here. Identical values can stand only once. Counter-ions that a name gives are not always drawn.
Key:
Top1 = molecular target: T1, Top1 (Homo sapiens, UniProt P11387); assay: Top1-mediated DNA cleavage assay; assay type: biochemical; conditions: score based on the activity of 1 μM 1 (camptothecin); tested at 0.1, 1, 10, 100 μM
T1 sequence (P11387 1-765): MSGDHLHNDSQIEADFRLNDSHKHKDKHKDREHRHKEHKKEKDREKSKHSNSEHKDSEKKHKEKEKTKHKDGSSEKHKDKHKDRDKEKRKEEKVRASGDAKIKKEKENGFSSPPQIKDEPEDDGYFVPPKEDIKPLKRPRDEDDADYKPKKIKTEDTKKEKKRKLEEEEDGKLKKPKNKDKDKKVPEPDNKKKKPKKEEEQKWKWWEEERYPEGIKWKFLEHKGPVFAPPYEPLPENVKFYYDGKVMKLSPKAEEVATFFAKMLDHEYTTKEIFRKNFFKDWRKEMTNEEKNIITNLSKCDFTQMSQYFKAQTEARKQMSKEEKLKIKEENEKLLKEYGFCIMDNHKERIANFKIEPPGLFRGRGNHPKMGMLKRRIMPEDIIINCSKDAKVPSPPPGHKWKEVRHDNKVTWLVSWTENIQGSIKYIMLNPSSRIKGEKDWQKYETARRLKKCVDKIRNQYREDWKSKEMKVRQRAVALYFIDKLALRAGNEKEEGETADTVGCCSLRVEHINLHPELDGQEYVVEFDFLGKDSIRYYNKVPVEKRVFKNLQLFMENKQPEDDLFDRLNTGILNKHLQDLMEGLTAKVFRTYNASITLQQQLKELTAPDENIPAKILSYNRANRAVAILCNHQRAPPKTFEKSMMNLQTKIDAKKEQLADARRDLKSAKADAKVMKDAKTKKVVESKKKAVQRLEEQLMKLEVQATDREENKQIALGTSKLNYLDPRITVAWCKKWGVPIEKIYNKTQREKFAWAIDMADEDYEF
Description: Approximately 2 nM radiolabeled DNA substrate was incubated with recombinant Top in 20 μL of reaction buffer [10 mM Tris-HCl (pH 7.5), 50 mM KCl, 5 mM MgCl2, 0.1 mM EDTA, and 15 μg/mL BSA] at 25° C. for 20 min in the presence of various concentrations of test compounds. […] Aliquots of each reaction mixture were subjected to 20% denaturing PAGE.
The Top1-mediated DNA cleavage assay was used to measure Top1 inhibitory activity. This assay measures the ability of the compound to stabilize DNA cleavage in a 3′-[^32P]-labeled DNA substrate via Top1 poisoning.

recombinant TDP1 = recombinant TDP1 (Homo sapiens, UniProt Q9NUW8); assay: Recombinant TDP1 assay; assay type: biochemical; conditions: recombinant TDP1, gel-based; read-out: TDP1: IC50 values for the inhibition of TDP1
Description: A 5′-[^32P]-labeled single-stranded DNA oligonucleotide containing a 3′-phosphotyrosine (N14Y) was incubated at 1 nM with 10 pM recombinant TDP1 in the absence or presence of inhibitor for 15 min at room temperature in the LMP1 assay buffer containing 50 mM Tris HCl, pH 7.5, 80 mM KCl, 2 mM EDTA, 1 mM DTT, 40 μg/mL BSA, and 0.01% Tween-20^18. […] Gels were dried and exposed to a PhosphorImager screen (GE Healthcare). Gel images were scanned using a Typhoon 8600 (GE Healthcare), and densitometry analyses were performed using ImageQuant software (GE Healthcare).
TDP1 is involved in the repair of DNA damage that results from the action of Top1 poisons, which induce the formation of DNA-protein adducts that include a 3′-phosphotyrosyl linkage. The TDP1 inhibition assay assesses a test agent's ability to inhibit the enzyme-induced cleavage of a 5′-^32P, 3′-phosphotyrosyl-DNA oligonucleotide, called N14Y. Cleavage of the phosphodiester bond between the 3′-phosphate and tyrosine releases […] from the DNA oligonucleotide. The enzyme-processed DNA oligonucleotide lacking its 3′-phosphotyrosyl moiety is designated N14P. A schematic representation of the assay and a representative gel are shown in FIG. 2, and the TDP1 screening results are listed in Table 1.

recombinant human TDP2 = molecular target: T2, recombinant human TDP2 (Homo sapiens, UniProt O95551); assay: Recombinant TDP2 assay; assay type: biochemical; conditions: recombinant human TDP2, gel-based; read-out: TDP2: IC50 values for the inhibition of TDP2
T2 sequence (O95551 1-362): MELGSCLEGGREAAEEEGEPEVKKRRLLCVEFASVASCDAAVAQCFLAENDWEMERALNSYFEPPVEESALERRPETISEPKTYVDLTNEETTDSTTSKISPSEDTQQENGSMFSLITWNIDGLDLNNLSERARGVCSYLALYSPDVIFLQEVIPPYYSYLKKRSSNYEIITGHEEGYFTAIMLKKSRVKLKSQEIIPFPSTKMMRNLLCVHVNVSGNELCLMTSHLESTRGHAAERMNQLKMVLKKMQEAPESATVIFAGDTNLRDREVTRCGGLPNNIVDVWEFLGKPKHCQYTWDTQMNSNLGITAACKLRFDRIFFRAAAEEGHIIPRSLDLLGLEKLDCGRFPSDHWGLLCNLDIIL
Text: Reactions were terminated and treated similarly to recombinant TDP1 reactions.
TDP2, as opposed to TDP1, cleaves the phosphotyrosyl linkage in 5′-phosphotyrosyl-DNA oligonucleotides.

[1] = system: 60 human cancer cell lines; assay: NCI-60 single-dose cytotoxicity assay; assay type: cell-based; conditions: mean-graph midpoint of percent growth of 60 human cancer cell lines, 10 μM drug, 48 h, relative to no-drug control and time zero
Description: The new indenoisoquinolines were evaluated for cancer cell growth inhibitory activities. The National Cancer Institute's NCI-60 cytotoxicity assay measures the ability of test agents to inhibit the growth of approximately 60 different cancer cell lines. In the initial single-dose assay, cells are treated with a 10 μM dose of test agent. The growth of treated cells versus untreated cells is then compared. If a test agent induces a sufficiently low mean growth percent, it is promoted to five-dose testing to determine a mean graph midpoint (MGM) GI50 value. In five-dose testing, cells are treated with test agent concentrations ranging from 10^−8 to 10^−4 M. The concentration required to achieve 50% growth inhibition in a particular cell line is calculated. In situations in which this value is greater than 100 μM or less than 0.01 μM, it is recorded as 100 μM and 0.01 μM, respectively. The values for each of the tested cell lines are averaged to obtain a mean graph midpoint (MGM) GI50 value. MGM GI50 values are often, but not always, determined from two separate rounds (Table 1).

recombinant TDP1, sequence (Q9NUW8 whole entry, species assumed): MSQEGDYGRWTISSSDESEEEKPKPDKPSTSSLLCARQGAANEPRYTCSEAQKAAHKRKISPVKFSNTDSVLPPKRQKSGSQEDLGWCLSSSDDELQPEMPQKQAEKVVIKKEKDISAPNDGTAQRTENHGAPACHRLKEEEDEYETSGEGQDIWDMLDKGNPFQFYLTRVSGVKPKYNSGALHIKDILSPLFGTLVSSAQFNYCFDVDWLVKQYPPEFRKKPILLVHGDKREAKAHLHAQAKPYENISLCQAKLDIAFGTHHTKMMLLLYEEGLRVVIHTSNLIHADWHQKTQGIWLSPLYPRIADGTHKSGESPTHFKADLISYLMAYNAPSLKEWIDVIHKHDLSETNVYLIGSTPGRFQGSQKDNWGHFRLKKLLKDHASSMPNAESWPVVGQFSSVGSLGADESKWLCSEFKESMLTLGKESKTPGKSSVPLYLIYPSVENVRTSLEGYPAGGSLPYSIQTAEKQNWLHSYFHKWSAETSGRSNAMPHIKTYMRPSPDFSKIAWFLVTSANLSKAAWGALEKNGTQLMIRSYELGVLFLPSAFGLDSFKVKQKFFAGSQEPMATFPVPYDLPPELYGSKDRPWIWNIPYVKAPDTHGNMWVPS

| SMILES | Top 1: compound-induced DNA cleavage due to Top1 poisoning (Top1) | IC50 (recombinant TDP1) | IC50 (recombinant human TDP2) | Mean Growth % [1] | melting point |
| --- | --- | --- | --- | --- | --- |
| O=C1c2ccccc2-c2c1c1cccnc1c(=O)n2CCCn1ccnc1 [Compound 43, 4-Aza-5,6-dihydro-6-(3-(1H-imidazol-1-yl)propyl)-5,11-dioxo-indeno[1,2-c]isoquinoline] | +++ (+++, between 75 and 95% activity) | > 111 µM | > 111 µM | 49.6% | 251 to 252 °C |
| O=C1c2ccccc2-c2c1c1ncccc1c(=O)n2CCCn1ccnc1 [Compound 40, 1-Aza-5,6-dihydro-6-(3-(1H-imidazol-1-yl)propyl)-5,11-dioxo-indeno[1,2-c]isoquinoline] | ++ (++, between 50 and 75% activity) | > 111 µM | > 111 µM | 83.6% | 242 to 243 °C |
| NCCCn1c2c(c3ncccc3c1=O)C(=O)c1ccccc1-2 [Compound 57, 6-(3-Aminopropyl)-1-aza-5,6-dihydro-5,11-dioxo-indeno[1,2-c]isoquinoline Dihydrochloride] | ++ (++, between 50 and 75% activity) | 43 µM and 63 µM | > 111 µM |  |  |
| O=C1c2ccccc2-c2c1c1cnccc1c(=O)n2CCCn1ccnc1 [Compound 41, 2-Aza-5,6-dihydro-6-(3-(1H-imidazol-1-yl)propyl)-5,11-dioxo-indeno[1,2-c]isoquinoline] | ++ (++, between 50 and 75% activity) | > 111 µM | > 111 µM | 67.8% | 274 to 275 °C |
| NCCCn1c2c(c3cnccc3c1=O)C(=O)c1ccccc1-2 [Compound 58, 6-(3-Aminopropyl)-2-aza-5,6-dihydro-5,11-dioxo-indeno[1,2-c]isoquinoline Dihydrochloride] | ++ (++, between 50 and 75% activity) | 19 µM and 30 µM | ~111 µM |  |  |
| NCCCn1c2c(c3ccncc3c1=O)C(=O)c1ccccc1-2 [Compound 59, 6-(3-Aminopropyl)-3-aza-5,6-dihydro-5,11-dioxo-indeno[1,2-c]isoquinoline Dihydrochloride] |  | 30 µM and 48 µM | ~111 µM |  |  |
| NCCCn1c2c(c3ccncc3c1=O)C(=O)c1ccccc1-2 (as salt: hydrochloride) [Compound 59, 6-(3-Aminopropyl)-3-aza-5,6-dihydro-5,11-dioxo-indeno[1,2-c]isoquinoline Dihydrochloride] |  |  |  |  | 253 to 254 °C |
| O=C1c2ccccc2-c2c1c1cccnc1c(=O)n2C[C@H](O)CO [Compound 51, (2′S)-4-Aza-5,6-dihydro-6-(2′,3′-dihydroxypropyl)-5,11-dioxo-indeno[1,2-c]isoquinoline] | + (+, between 20 and 50%activity) | > 111 µM | > 111 µM | 61.7% | 247 to 255 °C |
| NCCCn1c2c(c3cccnc3c1=O)C(=O)c1ccccc1-2 (as salt: hydrochloride) [Compound 60, 6-(3-Aminopropyl)-4-aza-5,6-dihydro-5,11-dioxo-indeno[1,2-c]isoquinoline Dihydrochloride] |  |  |  |  | 284 to 286 °C |
| O=C1c2ccccc2-c2c1c1cnccc1c(=O)n2CCCN1CCOCC1 [Compound 37, 2-Aza-5,6-dihydro-6-(3-morpholinopropyl)-5,11-dioxo-indeno[1,2-c]isoquinoline] | +++ (+++, between 75 and 95% activity) | > 111 µM | > 111 µM |  | 218 to 219 °C |
| NCCCn1c2c(c3ncccc3c1=O)C(=O)c1ccccc1-2 (as salt: hydrochloride) [Compound 57, 6-(3-Aminopropyl)-1-aza-5,6-dihydro-5,11-dioxo-indeno[1,2-c]isoquinoline Dihydrochloride] |  |  |  |  | 226 to 228 °C |
| O=C1c2ccccc2-c2c1c1cccnc1c(=O)n2CCCN1CCOCC1 [Compound 39, 4-Aza-5,6-dihydro-6-(3-morpholinopropyl)-5,11-dioxo-indeno[1,2-c]isoquinoline] | +++ (+++, between 75 and 95% activity) | > 111 µM | > 111 µM | 42.9% | 177 to 178 °C |
| O=C1c2ccccc2-c2c1c1ccncc1c(=O)n2C[C@H](O)CO [Compound 50, (2′S)-3-Aza-5,6-dihydro-6-(2′,3′-dihydroxypropyl)-5,11-dioxo-indeno[1,2-c]isoquinoline] | ++ (++, between 50 and 75% activity) |  |  |  | 237 to 238 °C |
| O=C1c2ccccc2-c2c1c1cnccc1c(=O)n2C[C@H](O)CO [Compound 49, (2′S)-2-Aza-5,6-dihydro-6-(2′,3′-dihydroxypropyl)-5,11-dioxo-indeno[1,2-c]isoquinoline] | + (+, between 20 and 50%activity) | > 111 µM | > 111 µM | 85.5% | 229 to 232 °C |
| NCCCn1c2c(c3cnccc3c1=O)C(=O)c1ccccc1-2 (as salt: hydrochloride) [Compound 58, 6-(3-Aminopropyl)-2-aza-5,6-dihydro-5,11-dioxo-indeno[1,2-c]isoquinoline Dihydrochloride] |  |  |  |  | 272 to 274 °C |
| O=C1c2ccccc2-c2c1c1ccncc1c(=O)n2CCCN1CCOCC1 [Compound 38, 3-Aza-5,6-dihydro-6-(3-morpholinopropyl)-5,11-dioxo-11H-indeno[1,2-c]isoquinoline] | ++ (++, between 50 and 75% activity) | > 111 µM | > 111 µM |  | 210 to 211 °C |

Reference: patent US10759795B2, “Aza-A-ring indenoisoquinoline topoisomerase I poisons” (Purdue Research Foundation, priority 2016, dated 2020)
